The values below come from ChEMBL document CHEMBL1201862, “PubChem BioAssay data set” (2004).

Among the test systems are IGROV-1; UACC-257; HL-60; HCT-15; NCI-H522; UACC-62; MDA-N; MDA-MB-231; ACHN; NCI-H460; HCT-116; SN12C; RPMI-8226; Hs-578T; SK-MEL-5; TK-10; SF-268; OVCAR-5; MOLT-4; CAKI-1.
Holding throughout (test): growth of human tumour cells (NCI), 48 h

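In this assay, cells in 96-well plates receive the compound at five concentrations for 48 hours. Endpoints are linearly interpolated between the surrounding concentrations. GI50 = concentration required for 50% inhibition of growth.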 Activity calls are given as the source filed them. No stated cut-off is given here; in the data, active = GI50 up to about 1.1 µM and inactive = higher.

Consider `CC(Oc1ccccc1)C(=O)NN` (stereo not given), for which the GI50 was > 100 µM (inactive) with IGROV-1; > 100 µM (inactive) with UACC-257; > 100 µM (inactive) with HL-60; more than 100 µM in the assay with HCT-15; 79.3 µM (inactive) with NCI-H522; > 100 µM (inactive) in the assay on UACC-62. Besides, the GI50 in the assay with MDA-N is > 100 µM (inactive); in the assay on MDA-MB-231, 66.8 µM (inactive); in the assay with ACHN, > 100 µM (inactive); with NCI-H460, > 100 µM (inactive); in the assay with HCT-116, > 100 µM (inactive); in the assay on SN12C, > 100 µM (inactive). Besides, the GI50 in the assay on RPMI-8226 was > 100 µM (inactive); with Hs-578T, 34.8 µM (inactive); with SK-MEL-5, > 100 µM (inactive); with TK-10 it was > 100 µM (inactive); in the assay on SF-268, > 100 µM (inactive); in the assay on OVCAR-5 it was > 100 µM (inactive). For the same molecule, the GI50 with MOLT-4 and in the assay on CAKI-1 was > 100 µM (inactive) in each case.

As to `CN(C(=O)Cc1cc(Cl)c(Cl)cc1N=C=S)[C@H]1CCCC[C@@H]1N1CCCC1`, the GI50 in the assay on IGROV-1 is 13.9 µM (inactive); with UACC-257, 14.6 µM (inactive); in the assay on HL-60, 10.1 µM (inactive); in the assay with HCT-15, 13.6 µM; in the assay with NCI-H522, 13.1 µM (inactive); in the assay on UACC-62, 16.4 µM (inactive). Further, the GI50 in the assay with MDA-N was 14.8 µM (inactive); in the assay with MDA-MB-231 it was 14.3 µM (inactive); in the assay on ACHN, 15.4 µM (inactive); in the assay on NCI-H460, 7.36 µM (inactive); in the assay on HCT-116 it was 8.49 µM (inactive); in the assay on SN12C, 16.6 µM (inactive). The GI50 in the assay on RPMI-8226 was 7.96 µM (inactive); in the assay on Hs-578T it was 15.5 µM (inactive); in the assay with SK-MEL-5, 14 µM (inactive); in the assay with TK-10, 10.1 µM (inactive); with SF-268 it was 15.8 µM (inactive); in the assay on OVCAR-5, 16.9 µM (inactive). Besides, the GI50 is 3 µM (inactive) in the assay on MOLT-4 and 15.8 µM (inactive) in the assay on CAKI-1.

Take `O=c1c(Sc2c(SCSc3cnc4ccccc4c3Sc3c[nH]c4ccccc4c3=O)cnc3ccccc23)c[nH]c2ccccc12`: the GI50 with IGROV-1 is 88.9 µM (inactive); in the assay on UACC-257, > 100 µM (inactive); with HL-60, 0.54 µM (active); in the assay on HCT-15 it was 96.8 µM; in the assay on NCI-H522 it was > 100 µM (inactive); in the assay on UACC-62, 43.3 µM (inactive). The GI50 in the assay on MDA-N was > 100 µM (inactive); in the assay with MDA-MB-231 it was 34.9 µM (inactive); with ACHN it was > 100 µM (inactive); in the assay on NCI-H460, > 100 µM (inactive); in the assay on HCT-116 it was > 100 µM (inactive); in the assay with SN12C, > 100 µM (inactive). The GI50 was 14.5 µM (inactive) in the assay with RPMI-8226; 62.8 µM (inactive) in the assay on Hs-578T; 39.6 µM (inactive) with SK-MEL-5; > 100 µM (inactive) in the assay on TK-10; 92.3 µM (inactive) in the assay on SF-268; > 100 µM (inactive) with OVCAR-5. Further, the GI50 with MOLT-4 and in the assay with CAKI-1 was > 100 µM (inactive) each time.

For the molecule `CC(Oc1ccc(Cl)cc1Cl)C(=O)NN1C(=O)CSC1c1ccccc1` (stereo not given), the GI50 is 54 µM (inactive) in the assay with IGROV-1; 53.2 µM (inactive) in the assay with UACC-257; 27.3 µM (inactive) with HL-60; more than 100 µM in the assay with HCT-15; 56.2 µM (inactive) in the assay with NCI-H522; 50.2 µM (inactive) in the assay with UACC-62. The GI50 in the assay with MDA-N is > 100 µM (inactive); with MDA-MB-231, 37.8 µM (inactive); in the assay on ACHN it was 68.5 µM (inactive); with NCI-H460 it was > 100 µM (inactive); with HCT-116, 45.7 µM (inactive); in the assay on SN12C, 69.2 µM (inactive). The GI50 is 49.2 µM (inactive) with RPMI-8226; 45.6 µM (inactive) with Hs-578T; 70.8 µM (inactive) in the assay with SK-MEL-5; > 100 µM (inactive) in the assay with TK-10; 60.5 µM (inactive) with SF-268; > 100 µM (inactive) in the assay on OVCAR-5. Further, the GI50 is > 100 µM (inactive) with MOLT-4 and 20.4 µM (inactive) with CAKI-1.
